Measured values as given in PMC5395182, “Soaking suggests “alternative facts”: Only co-crystallization discloses major ligand-induced interface rearrangements of a homodimeric tRNA-binding protein indicating a novel mode-of-inhibition” (PLoS ONE, 2017).
Entries after “also recorded” stand apart in the source; their conditions may differ. One block for each compound: values may come before it.

Assays:
Z. mobilis TGT [1] = target: T1, Z. mobilis TGT (Zymomonas mobilis subsp. mobilis, UniProt P28720); assay: Isothermal titration calorimetry (ITC) of ligand binding to TGT; details: for thermodynamic binding signature in words / Kd / ΔG^0: ITC; for Kd: 298 K, direct titration; for ΔG^0: calculated at 298.15 K; for ΔH^0bind: ionization corrected (intercept of ΔH^0obs vs buffer ΔH^0ion); for -TΔΔS^0 / ΔΔH^0: relative to 1 used as reference; for protons picked up during binding: slope of linear regression, average over inhibitors 2 and 5
T1 construct: Strep-tag II (N, cleaved yes); made in house; host or cells: Escherichia coli
Description: To further analyze the binding properties of ligands studied in this contribution we decided to establish the thermodynamic analysis of a representative subset via isothermal titration calorimetry (ITC) (data for 1 had been determined previously). ITC enables the simultaneous determination of affinity (Kd) and stoichiometry (n) as well as enthalpic contribution (ΔH^0). The entropic (-TΔS^0) term to Gibbs free energy (ΔG^0 = ΔH^0—TΔS^0) results from ΔG^0–ΔH^0 difference. Due to insufficient availability of some compounds in high purity, quantity and sufficient solubility to perform proper ITC measurements, we decided to focus our investigation on 1, 2, 3 and 5.
We recently discovered that the binding of lin-benzoguanine derivatives is associated with protonation effects that are superimposed to the heat signal of ligand binding to TGT. […] Such protonation effects become transparent when ITC measurements are performed from at least three different buffers (see Materials and methods). The overlaid […] of the protonation step was determined as the intersection of the linear regression line obtained by plotting the observed enthalpies of the studied ligands (ΔH^0obs) against the heat of ionization of the corresponding buffers (ΔH^0ion) (Fig 9a). […] The examined inhibitors 2 and 5, on average receive 0.61 ± 0.04 protons per mole of the formed complex, which is in reasonable agreement with the results obtained for 1 (0.89) and similar compounds [29].
ITC measurements were performed using a Microcal ITC200 calorimeter system from GE Healthcare. Z. mobilis TGT was dissolved in the ITC buffer (50 mM HEPES/Tricin/TRIS pH 7.8, 200 mM NaCl, 0.037% (v/v) Tween 20 and 3% (v/v) DMSO) to a final concentration of 10–20 μM.
The inhibitors were first dissolved in 100% (v/v) DMSO and diluted with the buffer solution to a final DMSO concentration of 3% (v/v). The concentration of the inhibitor in the syringe was adjusted to 200–300 μM with the ITC buffer. The reference cell contained filtered demineralized water. […] The initial delay before the injections were started was adjusted to 180–300 s and the spacing between each injection to 150–180 s. The first injection contained 0.3–0.6 μL of the inhibitor solution followed by injections of 1.0–2.4 μL until a saturation occurred. A stirring speed of 750 rpm was chosen. Raw data were collected as released heat per time. The direct titrations were done in three different buffers (HEPES/Tricin/TRIS) to correct for the overlaid protonation effect as previously described.The measured ΔH^0obs were plotted on the ordinate and the ionization enthalpy of the corresponding buffer ΔH^0ion on the abscissa (Fig 9). The positive slope of the linear regression line indicates how many protons per mole of formed complex are entrapped.
For estimation of binding affinity (Kd), Z. mobilis TGT was incubated with 90–100% saturation of inhibitor 3. Protein saturation was calculated according Rühmann et al. (2015). Inhibitor 1 as strong titrant was used to displace inhibitor 3.
For analysis of the raw data, peak integration, model fitting and evaluation, the programs NITPIC [57] and SEDPHAT [58] were used. The initial injection peak was removed and the areas of the remaining peaks were integrated. The correction of the heats of dilution was conducted by subtraction of the final constant injection peak area integrals. The A+B ↔ AB hetero-association model (1:1 stoichiometry) was applied, whereby ΔH^0 and Kd were directly obtained. The ΔG^0 and -TΔS^0 values were calculated using a temperature of 298.15 K. For illustration of the integrated raw data and the ITC isotherms, the program GUSSI was used. Obtained thermodynamic data per buffer are reported as mean values averaged over at least three measurements.

TGT homodimer = test system: T2, TGT homodimer; assay: Native ESI-MS of TGT:ligand 1:10 mixtures (dimer destabilization); parameters: species or system Zymomonas mobilis; details: for Relative proportion of TGT monomers: 2.5 µM TGT and 25 µM inhibitor (1:10), 1 M NH4Ac pH 7.5, without ligand 3.3 ± 0.7 %; for effect on TGT dimer stability / monomer proportion, in words: compared to measurements in the absence of any ligand, TGT:ligand 1:10
T2 construct: Strep-tag II (N, cleaved yes); made in house; host or cells: Escherichia coli
Procedure: In order to gain insights into the dimer disturbing potential seen in the crystal structures with the different ligands and to collect evidence for such a behavior also present in solution, native ESI-MS was performed. This technique enables to monitor the oligomerization state of TGT at equilibrium under non-denaturing conditions, in the absence or presence of saturating ligand concentrations. […] To ensure reliability, these comparative experiments were thus carried out adhering to strictly similar conditions (see Materials and methods).
Relative proportions of TGT-monomer signals extracted from individual 1:10 TGT:ligand mixtures (TGT monomer 2.5 μM) were quantified (S7 Fig, S1 Table) and normalized with respect to this value in the absence of any inhibitor.
Nano-ESI-MS analyses were performed as already described in the literature. Briefly, WT-TGT samples were exchanged twice against a 1 M ammonium acetate pH 7.5 buffer using microcentrifuge gel-filtration columns (Zeba 0.5 mL, Thermo Scientific). Next, protein concentration was determined spectrophotometrically at 280 nm (Nano-Drop 2000 spectrophotometer, Thermo Scientific).
Native MS experiments were carried out on a hybrid Q-TOF mass spectrometer (Synapt G2 HDMS, Waters) equipped with an automated chip-based nanoESI source (Triversa Nanomate, Advion Biosciences) operating in the positive ion mode. External calibrations were generated from the multiple charged ions produced by a 2 μM horse heart myoglobin solution diluted in a 1:1 (v/v) water: acetonitrile mixture acidified with 1% (v/v) formic acid (denaturing MS) and singly charged cesium iodide clusters diluted to 2 g∙L^-1 in a 1:1 (v/v) water: isopropanol solution (native MS).
Titration experiments in native conditions (1 M NH4Ac pH 7.5) were next triggered by mixing 2.5 μM TGT monomers with 25 μM of each ligand separately (ratio 1:10). The final DMSO concentration of each mixture never exceeded 0.25% (v/v). Non-covalent TGT dimers and TGT-ligand complexes were preserved in the gas phase according fine-tuned instrumental parameters, improving ion desolvation and transmission while maintaining intact structures (Vc = 80V, Pi = 6 mbar).
Relative quantification of TGT monomers was performed from charge states peak intensities of both monomeric (10 to 14+) and dimeric complexes (15 to 20+), using MassLynx 4.1 (Waters). TGT dimer disruption was determined for each ligand through their destabilization factor (Fig 8) which corresponds to their associated ratio of TGT monomers normalized from the apo-condition (S7 Fig; S1 Table). Standard deviations are calculated here from analytical triplicates. For the sake of reliability and comparability, all these experiments were performed within the same day, from identical experimental and instrumental conditions using the same buffer exchanged TGT batch (frozen and thawed only once).

Z. mobilis TGT [2] = target: T1, Z. mobilis TGT; details: cited from earlier work; for Ki / affinity as described in words: radio-labeled assay, determined previously
[3] = Ligand dilution in native MS buffer (precipitation); type: physicochemical; details: 1 M NH4Ac pH 7.5
[4] = HEPES buffer, Gibbs-Helmholtz equation
[5] = TRIS buffer, Gibbs-Helmholtz equation
[6] = Tricin buffer, Gibbs-Helmholtz equation

T1 sequence (P28720 whole entry): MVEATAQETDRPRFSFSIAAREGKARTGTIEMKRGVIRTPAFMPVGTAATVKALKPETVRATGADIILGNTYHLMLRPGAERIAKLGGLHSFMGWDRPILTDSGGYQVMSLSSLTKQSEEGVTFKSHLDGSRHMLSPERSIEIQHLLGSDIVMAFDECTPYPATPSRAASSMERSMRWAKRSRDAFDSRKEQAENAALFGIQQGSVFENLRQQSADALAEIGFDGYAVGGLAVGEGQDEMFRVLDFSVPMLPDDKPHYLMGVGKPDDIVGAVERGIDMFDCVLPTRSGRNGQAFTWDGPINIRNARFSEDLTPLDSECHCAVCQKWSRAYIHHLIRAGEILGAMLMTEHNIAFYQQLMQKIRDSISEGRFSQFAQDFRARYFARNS

ΔH^0obs (Z. mobilis TGT [1]; HEPES buffer): -40.2 ± 2.2 kJ/mol
-TΔS^0 (Z. mobilis TGT [1]; [4]): 2.4 ± 2.1 kJ/mol
thermodynamic binding signature in words (Z. mobilis TGT [1]): more enthalpically favored binder
Kd (Z. mobilis TGT [1]): 0.275 ± 0.049 µM
ΔG^0 (Z. mobilis TGT [1]): -37.9 ± 0.4 kJ/mol
ΔH^0obs (Z. mobilis TGT [1]; TRIS buffer): -23.5 ± 2.0 kJ/mol
-TΔS^0 (Z. mobilis TGT [1]; [5]): -14.1 ± 1.6 kJ/mol
ΔH^0obs (Z. mobilis TGT [1]; Tricin buffer): -35.6 ± 3.2 kJ/mol
-TΔS^0 (Z. mobilis TGT [1]; [6]): -2.7 ± 2.7 kJ/mol
-TΔS^0 (Z. mobilis TGT [1]; ionization corrected): 15.9 kJ/mol
ΔH^0bind (Z. mobilis TGT [1]): -53.9 kJ/mol
-TΔΔS^0 (Z. mobilis TGT [1]; ionization corrected): -36.1 kJ/mol
ΔΔH^0 (Z. mobilis TGT [1]; ionization corrected): 39.7 kJ/mol
SMILES: CNc1nc2c(CC[C@H]3O[C@@H](OC)[C@H](O)[C@@H]3O)c3nc(N)[nH]c(=O)c3cc2[nH]1 [Inhibitor 2]
protons picked up during binding (Z. mobilis TGT [1]): 0.61 ± 0.04 protons per mole of the formed complex
Relative proportion of TGT monomers (TGT homodimer): 5.3%
effect on TGT dimer stability / monomer proportion, in words (TGT homodimer): No effect on dimer stability
Ki (Z. mobilis TGT [2]): 0.217 ± 0.081 µM
Ki / affinity as described in words (Z. mobilis TGT [2]): three-digit nanomolar

heat signal in ITC displacement titration (Z. mobilis TGT [1]; TGT 100% saturated with 3, 1 as titrant, HEPES): again no heat signal was recorded
binding constant from ITC displacement experiments, in words (Z. mobilis TGT [1]; TGT saturated about 90% with 3, 1 as titrant): falls close to that of 1
SMILES: CNc1nc2c(CC[C@H]3O[C@@H](OC)[C@H](O)[C@@H]3OC)c3nc(N)[nH]c(=O)c3cc2[nH]1 [Inhibitor 3]
heat signal in ITC, direct titration of ligand to TGT (Z. mobilis TGT [1]; HEPES, Tricin, TRIS buffers, also up to 308 K in HEPES): no heat effects at all could be detected; also recorded: no detectable heat signal
thermodynamic binding signature in words (Z. mobilis TGT [1]): overwhelmingly entropy-driven; also recorded: pure entropically-driven binding signature
Relative proportion of TGT monomers (TGT homodimer): 9.6%
effect on TGT dimer stability / monomer proportion, in words (TGT homodimer): slightly increased proportion of TGT monomer
Ki / affinity as described in words (Z. mobilis TGT [2]): submicromolar; also recorded: three-digit nanomolar

ΔH^0obs (Z. mobilis TGT [1]; HEPES buffer): -50.2 ± 3.4 kJ/mol
-TΔS^0 (Z. mobilis TGT [1]; [4]): 6.2 ± 3.7 kJ/mol
Kd (Z. mobilis TGT [1]): 0.032 ± 0.009 µM
ΔG^0 (Z. mobilis TGT [1]): -43.1 ± 0.8 kJ/mol
ΔH^0obs (Z. mobilis TGT [1]; TRIS buffer): -34.3 ± 2.2 kJ/mol
-TΔS^0 (Z. mobilis TGT [1]; [5]): -8.3 ± 1.4 kJ/mol
ΔH^0obs (Z. mobilis TGT [1]; Tricin buffer): -43.2 ± 4.1 kJ/mol
-TΔS^0 (Z. mobilis TGT [1]; [6]): 0.5 ± 3.3 kJ/mol
-TΔS^0 (Z. mobilis TGT [1]; ionization corrected): 18.8 kJ/mol
ΔH^0bind (Z. mobilis TGT [1]): -61.9 kJ/mol
-TΔΔS^0 (Z. mobilis TGT [1]; ionization corrected): -33.2 kJ/mol
ΔΔH^0 (Z. mobilis TGT [1]; ionization corrected): 31.7 kJ/mol
SMILES: CNc1nc2c(CCNCC3CCCC3)c3nc(N)[nH]c(=O)c3cc2[nH]1 [Inhibitor 5]
protons picked up during binding (Z. mobilis TGT [1]): 0.61 ± 0.04 protons per mole of the formed complex
Relative proportion of TGT monomers (TGT homodimer): 4.2%
effect on TGT dimer stability / monomer proportion, in words (TGT homodimer): No effect on dimer stability
Ki (Z. mobilis TGT [2]): 0.002 ± 0.001 µM
Ki / affinity as described in words (Z. mobilis TGT [2]): single-digit nanomolar

SMILES: CNc1nc2c(CCNCC3CCCCC3)c3nc(N)[nH]c(=O)c3cc2[nH]1 [Inhibitor 6]
Relative proportion of TGT monomers (TGT homodimer): 2.5%
effect on TGT dimer stability / monomer proportion, in words (TGT homodimer): did not exert any influence on dimer stability
precipitation upon ligand dilution in buffer [3]: partial precipitation; also recorded: apparent precipitation
Ki / affinity as described in words (Z. mobilis TGT [2]): single-digit nanomolar

SMILES: COc1ccc(CCc2c3nc[nH]c3cc3c(=O)[nH]c(N)nc23)cc1 [Inhibitor 7]
Relative proportion of TGT monomers (TGT homodimer): 9.4%
effect on TGT dimer stability / monomer proportion, in words (TGT homodimer): slightly increased proportion of TGT monomer

SMILES: Cc1ccc(CCc2c3nc[nH]c3cc3c(=O)[nH]c(N)nc23)cc1 [Inhibitor 8]
Relative proportion of TGT monomers (TGT homodimer): 7.1%
effect on TGT dimer stability / monomer proportion, in words (TGT homodimer): slightly increased proportion of TGT monomer

SMILES: Nc1nc2c(CCc3ccccc3)c3nc[nH]c3cc2c(=O)[nH]1 [Inhibitor 9]
Relative proportion of TGT monomers (TGT homodimer): 12.6%
effect on TGT dimer stability / monomer proportion, in words (TGT homodimer): slightly increased proportion of TGT monomer; also recorded: most significant increase of normalized monomer proportion

SMILES: Nc1nc2cc3nc[nH]c3cc2c(=O)[nH]1 [lin-benzoguanine, reference compound]
Ki (Z. mobilis TGT [2]): 4.1 ± 1 µM
